Several values for one entry are separate records, joined by “and”; a condition that tells them apart may be missing. Identical values can stand only once.
What was measured:
[1] = biological target: T1, mGluR2-I779A (Rattus norvegicus, UniProt P31421, I779A); experiment: Calcium imaging in HEK 293 T cells; assay type: cell-based; details: for Calcium response amplitude: mGluR2-I779A
T1 construct: we performed calcium imaging experiments with mutations in the full-length mGluR2 background; expressed in transfected cells; host or cells: HEK 293 T
Protocol: Approximately 30 ROIs were analyzed per movie.

[2] = biological target: mGluR2 (Rattus norvegicus, UniProt P31421); experiment: Calcium imaging (G protein chimera, GCaMP6f) in HEK 293 T cells
[3] = biological target: mGluR2-3xTM4 (Rattus norvegicus, UniProt P31421, A677S/A681F/A685G); experiment: as above; details: for Calcium response amplitude: normalized to 1 mM glutamate, replicates
[4] = biological target: mGluR2-TMD (Rattus norvegicus, UniProt P31421); experiment: SiMPull subunit counting in the presence of ligands; details: for % Dimerization: SNAP-mGluR2-TMD in presence of the ligand, single replicates per experiment day; for effect of ligand on dimerization (SiMPull): saturating concentration
[5] = system: mGluR2-TMD-3xTM4; experiment: as above; parameters: species or system rat; details: for % Dimerization: SNAP-mGluR2-TMD-3xTM4 in presence of the ligand, single replicates per experiment day
[6] = system: mGluR2-TMD-I779A; experiment: as above; parameters: species or system rat; details: for % Dimerization: SNAP-mGluR2-TMD-I779A in presence of the ligand, single replicates per experiment day
[7] = system: mGluR2-TMD-3xTM4-I779A; experiment: as above; parameters: species or system rat; details: for % Dimerization: SNAP-mGluR2-TMD-3xTM4-I779A in presence of the ligand, single replicates per experiment day; for effect of ligand on dimerization (SiMPull): saturating concentration
[8] = biological target: T2, mGluR2-C121A (Rattus norvegicus, UniProt P31421, C121A); experiment: as above; details: SNAP-mGluR2-C121A in presence of the ligand; single replicates per experiment day
T2 construct: expressed in transfected cells; host or cells: HEK 293 T (detergent lysate, pulled down by anti-HA antibody)

[9] = biological target: T3, mGluR2-C121A-3xTM4 (Rattus norvegicus, UniProt P31421, A677S/A681F/A685G/C121A); experiment: as above; details: for % Dimerization: SNAP-mGluR2-C121A-3xTM4 in presence of the ligand, single replicates per experiment day
T3 construct: expressed in transfected cells; host or cells: HEK 293 T (detergent lysate, pulled down by anti-HA antibody)

[10] = biological target: T4, mGluR2-C121A-I779A (Rattus norvegicus, UniProt P31421, C121A/I779A); experiment: as above; details: for % Dimerization: SNAP-mGluR2-C121A-I779A in presence of the ligand, single replicates per experiment day
T4 construct: expressed in transfected cells; host or cells: HEK 293 T (detergent lysate, pulled down by anti-HA antibody)

[11] = biological target: T5, mGluR2-C121A-3xTM4-I779A (Rattus norvegicus, UniProt P31421, A677S/A681F/A685G/C121A/I779A); experiment: as above; details: SNAP-mGluR2-C121A-3xTM4-I779A in presence of the ligand; single replicates per experiment day
T5 construct: expressed in transfected cells; host or cells: HEK 293 T (detergent lysate, pulled down by anti-HA antibody)

[12] = system: group II mGluR; parameters: method as in Hemstapat et al., 2007; details: ref Hemstapat et al., 2007; cited from earlier work
[13] = biological target: mGluR2 (Rattus norvegicus, UniProt P31421, INS660ASEIGTGFPFDPHYVEVLGERMHYVDVGPRDGTPVLFLHGNPTSSYVWRNIIPHVAPTHRCIAPDLIGMGKSDKPDLGYFFDDHVRFMDAFIEALGLEEVVLVIHDWGSALGFHWAKRNPERVKGIAFMEFIRPIPTWDEWPEFARETFQAFRTTDVGRKLIIDQNVFIEGTLPMGVVRPLTEVEMDHYREPFLNPVDREPLWRFPNELPIAGEPANIVALVEEYMDWLHQSPVPKLLFWGTPGVLIPPAEAARLAKSLPNCKAVDIGPGLNLLQEDNPDLIGSEIARWLSTLEISGLE); experiment: Inter-TMD FRET sensor (HaloTag in ICL2), live cells
[14] = biological target: mGluR3 (Rattus norvegicus, UniProt P31422, INS669ASEIGTGFPFDPHYVEVLGERMHYVDVGPRDGTPVLFLHGNPTSSYVWRNIIPHVAPTHRCIAPDLIGMGKSDKPDLGYFFDDHVRFMDAFIEALGLEEVVLVIHDWGSALGFHWAKRNPERVKGIAFMEFIRPIPTWDEWPEFARETFQAFRTTDVGRKLIIDQNVFIEGTLPMGVVRPLTEVEMDHYREPFLNPVDREPLWRFPNELPIAGEPANIVALVEEYMDWLHQSPVPKLLFWGTPGVLIPPAEAARLAKSLPNCKAVDIGPGLNLLQEDNPDLIGSEIARWLSTLEISGLE); experiment: as above
[15] = biological target: mGluR3 (Rattus norvegicus, UniProt P31422); experiment: Calcium imaging (G protein chimera, GCaMP6f) in HEK 293 T cells
[16] = system: SNAP-tagged mGluR2 and mGluR3 constructs; experiment: Surface expression measurements; assay type: cell-based, rat; details: construct; single measurements
Source text: ImageJ was used to analyze fluorescence intensity of cell clusters. […] Fluorescence intensity values for each construct were normalized to wild-type values for comparison.
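Throughout, for Basal FRET Response (%): receptor HaloTag labeled with JF549 donor and JF646 acceptor (1:3), FRET taken as acceptor over summed donor plus acceptor fluorescence intensity, imaged at room temperature.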

Chain of mGluR2-TMD (P31421 558-821 limits assumed): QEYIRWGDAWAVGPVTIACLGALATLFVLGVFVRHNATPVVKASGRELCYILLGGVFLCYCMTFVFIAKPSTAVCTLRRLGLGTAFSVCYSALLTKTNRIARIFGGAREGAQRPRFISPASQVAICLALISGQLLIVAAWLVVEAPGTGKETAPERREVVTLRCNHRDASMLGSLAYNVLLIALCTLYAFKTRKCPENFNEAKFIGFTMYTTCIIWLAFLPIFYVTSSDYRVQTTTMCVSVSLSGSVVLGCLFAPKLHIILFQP
Chain of UniProt P31422 (P31422 with tags, fused parts or gaps with the stated changes): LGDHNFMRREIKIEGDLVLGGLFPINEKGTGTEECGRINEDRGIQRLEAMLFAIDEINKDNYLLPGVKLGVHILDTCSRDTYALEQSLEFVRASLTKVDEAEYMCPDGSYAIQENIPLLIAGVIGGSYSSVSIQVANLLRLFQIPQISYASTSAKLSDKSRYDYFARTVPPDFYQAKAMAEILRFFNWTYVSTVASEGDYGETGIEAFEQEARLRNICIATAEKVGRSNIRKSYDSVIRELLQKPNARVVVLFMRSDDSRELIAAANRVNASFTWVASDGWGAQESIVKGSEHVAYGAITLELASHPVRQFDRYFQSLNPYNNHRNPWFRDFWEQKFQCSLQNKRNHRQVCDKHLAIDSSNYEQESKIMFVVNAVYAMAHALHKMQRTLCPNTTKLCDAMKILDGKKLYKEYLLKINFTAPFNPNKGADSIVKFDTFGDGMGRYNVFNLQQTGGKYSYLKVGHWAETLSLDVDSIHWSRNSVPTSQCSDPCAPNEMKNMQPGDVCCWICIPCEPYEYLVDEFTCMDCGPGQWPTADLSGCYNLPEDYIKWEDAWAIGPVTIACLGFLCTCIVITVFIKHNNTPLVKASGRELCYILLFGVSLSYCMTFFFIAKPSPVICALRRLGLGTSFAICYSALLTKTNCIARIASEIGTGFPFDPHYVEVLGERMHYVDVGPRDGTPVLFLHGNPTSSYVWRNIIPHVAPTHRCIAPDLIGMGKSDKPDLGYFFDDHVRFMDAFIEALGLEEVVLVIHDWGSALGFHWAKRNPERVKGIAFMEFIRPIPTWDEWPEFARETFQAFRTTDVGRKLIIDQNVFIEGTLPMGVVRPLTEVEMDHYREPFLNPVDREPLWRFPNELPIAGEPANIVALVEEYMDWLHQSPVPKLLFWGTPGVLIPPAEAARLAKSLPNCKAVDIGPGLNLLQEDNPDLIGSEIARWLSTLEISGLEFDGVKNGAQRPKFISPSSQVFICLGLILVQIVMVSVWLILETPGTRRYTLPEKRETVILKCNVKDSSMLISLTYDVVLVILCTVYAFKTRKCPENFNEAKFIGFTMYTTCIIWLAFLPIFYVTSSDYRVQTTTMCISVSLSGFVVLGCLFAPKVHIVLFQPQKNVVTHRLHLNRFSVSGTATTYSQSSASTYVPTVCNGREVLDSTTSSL
Chain of mGluR2-3xTM4 (P31421 19-872 A677S/A681F/A685G): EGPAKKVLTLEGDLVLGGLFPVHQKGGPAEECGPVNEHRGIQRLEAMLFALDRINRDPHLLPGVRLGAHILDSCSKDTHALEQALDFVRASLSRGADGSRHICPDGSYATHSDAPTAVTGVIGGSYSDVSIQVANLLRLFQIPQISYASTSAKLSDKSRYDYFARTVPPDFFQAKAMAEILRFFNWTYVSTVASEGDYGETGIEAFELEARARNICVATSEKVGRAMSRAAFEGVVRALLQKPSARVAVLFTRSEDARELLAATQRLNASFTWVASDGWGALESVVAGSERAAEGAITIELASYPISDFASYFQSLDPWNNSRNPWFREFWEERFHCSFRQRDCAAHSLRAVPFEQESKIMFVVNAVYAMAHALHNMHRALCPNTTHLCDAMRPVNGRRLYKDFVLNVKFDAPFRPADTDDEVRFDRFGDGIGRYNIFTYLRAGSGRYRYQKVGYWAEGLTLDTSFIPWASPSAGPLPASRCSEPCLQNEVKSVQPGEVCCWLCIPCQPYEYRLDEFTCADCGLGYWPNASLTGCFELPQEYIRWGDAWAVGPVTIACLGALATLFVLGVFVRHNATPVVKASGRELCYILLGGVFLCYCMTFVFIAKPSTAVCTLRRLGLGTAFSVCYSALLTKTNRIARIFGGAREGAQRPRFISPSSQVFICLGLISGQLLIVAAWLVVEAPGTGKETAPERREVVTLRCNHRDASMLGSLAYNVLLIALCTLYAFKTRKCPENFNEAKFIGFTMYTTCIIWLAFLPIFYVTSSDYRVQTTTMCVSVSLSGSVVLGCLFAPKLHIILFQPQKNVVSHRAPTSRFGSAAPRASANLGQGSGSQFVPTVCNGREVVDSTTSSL
T5 sequence (P31421 19-872 C121A/A677S/A681F/A685G/I779A): as the sequence (P31421 19-872 A677S/A681F/A685G) above, with C103A, I761A counted along it
T1 sequence (P31421 19-872 I779A): as the sequence (P31421 19-872 A677S/A681F/A685G) above, with S659A, F663A, G667A, I761A counted along it
T2 sequence (P31421 19-872 C121A): as the sequence (P31421 19-872 A677S/A681F/A685G) above, with C103A, S659A, F663A, G667A counted along it
Chain of mGluR2 (Rattus norvegicus, UniProt P31421) (P31421 19-872): as the sequence (P31421 19-872 A677S/A681F/A685G) above, with S659A, F663A, G667A counted along it
Chain of UniProt P31421 (P31421 with tags, fused parts or gaps with the stated changes): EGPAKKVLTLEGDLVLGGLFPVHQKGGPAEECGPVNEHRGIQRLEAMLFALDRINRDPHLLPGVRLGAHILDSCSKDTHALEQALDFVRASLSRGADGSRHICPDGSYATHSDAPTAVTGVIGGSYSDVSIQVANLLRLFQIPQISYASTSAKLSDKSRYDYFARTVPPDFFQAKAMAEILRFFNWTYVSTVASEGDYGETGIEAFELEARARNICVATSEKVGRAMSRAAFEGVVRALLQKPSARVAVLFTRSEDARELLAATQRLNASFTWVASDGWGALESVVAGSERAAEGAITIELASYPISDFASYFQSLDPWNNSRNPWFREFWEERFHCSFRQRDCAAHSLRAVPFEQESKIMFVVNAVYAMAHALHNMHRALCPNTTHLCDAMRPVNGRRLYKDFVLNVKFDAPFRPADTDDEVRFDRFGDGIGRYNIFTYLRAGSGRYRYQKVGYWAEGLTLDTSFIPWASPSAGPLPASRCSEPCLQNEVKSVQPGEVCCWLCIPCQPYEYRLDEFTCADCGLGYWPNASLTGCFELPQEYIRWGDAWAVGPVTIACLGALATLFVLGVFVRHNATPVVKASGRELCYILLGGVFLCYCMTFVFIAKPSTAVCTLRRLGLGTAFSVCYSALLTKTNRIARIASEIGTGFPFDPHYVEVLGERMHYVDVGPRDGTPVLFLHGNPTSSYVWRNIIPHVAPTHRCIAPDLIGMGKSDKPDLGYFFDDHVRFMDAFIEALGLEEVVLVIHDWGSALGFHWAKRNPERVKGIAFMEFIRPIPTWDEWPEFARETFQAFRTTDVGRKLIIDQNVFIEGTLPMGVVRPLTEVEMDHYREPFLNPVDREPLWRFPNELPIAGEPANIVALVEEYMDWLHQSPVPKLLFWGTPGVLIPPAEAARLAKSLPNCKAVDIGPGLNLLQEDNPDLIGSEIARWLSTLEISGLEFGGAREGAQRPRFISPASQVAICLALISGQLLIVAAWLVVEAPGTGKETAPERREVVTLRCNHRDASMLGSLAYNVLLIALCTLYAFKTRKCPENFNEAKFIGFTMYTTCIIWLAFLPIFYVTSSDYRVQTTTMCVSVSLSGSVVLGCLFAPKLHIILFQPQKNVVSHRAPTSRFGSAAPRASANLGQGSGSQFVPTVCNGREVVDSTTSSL
T4 sequence (P31421 19-872 C121A/I779A): as the sequence (P31421 19-872 A677S/A681F/A685G) above, with C103A, S659A, F663A, G667A, I761A counted along it
T3 sequence (P31421 19-872 C121A/A677S/A681F/A685G): as the sequence (P31421 19-872 A677S/A681F/A685G) above, with C103A counted along it
Chain of mGluR3 (Rattus norvegicus, UniProt P31422) (P31422 23-879): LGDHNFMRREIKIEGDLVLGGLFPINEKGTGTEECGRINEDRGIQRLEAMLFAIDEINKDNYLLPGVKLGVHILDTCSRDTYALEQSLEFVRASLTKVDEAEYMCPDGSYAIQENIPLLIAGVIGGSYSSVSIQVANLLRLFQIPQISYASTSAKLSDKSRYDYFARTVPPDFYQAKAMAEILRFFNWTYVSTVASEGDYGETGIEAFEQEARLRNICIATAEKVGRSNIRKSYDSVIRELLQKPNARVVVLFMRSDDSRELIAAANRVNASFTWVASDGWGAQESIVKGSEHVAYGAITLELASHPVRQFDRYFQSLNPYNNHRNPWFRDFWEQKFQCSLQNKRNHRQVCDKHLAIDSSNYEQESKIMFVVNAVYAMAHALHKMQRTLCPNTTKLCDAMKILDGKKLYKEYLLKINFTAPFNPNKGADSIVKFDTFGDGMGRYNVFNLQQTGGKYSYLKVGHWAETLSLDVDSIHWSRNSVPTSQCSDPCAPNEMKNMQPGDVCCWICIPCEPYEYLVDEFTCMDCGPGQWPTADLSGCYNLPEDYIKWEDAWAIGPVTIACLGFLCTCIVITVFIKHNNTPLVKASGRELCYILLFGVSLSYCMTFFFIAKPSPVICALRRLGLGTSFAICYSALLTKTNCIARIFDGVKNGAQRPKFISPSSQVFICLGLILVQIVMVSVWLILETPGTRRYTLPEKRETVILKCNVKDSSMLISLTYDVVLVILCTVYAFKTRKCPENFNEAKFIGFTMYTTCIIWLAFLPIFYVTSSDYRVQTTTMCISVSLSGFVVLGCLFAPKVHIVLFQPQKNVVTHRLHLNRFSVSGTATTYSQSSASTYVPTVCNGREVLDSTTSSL

COc1ccccc1Oc1ccc(N(Cc2cccnc2)S(=O)(=O)CC(F)(F)F)cc1 [LY487379, N-(4-(2-methoxyphenoxy)phenyl)-N-(2,2,2-trifluoroethylsulfonyl)pyrid-3-ylmethylamine]
Calcium response amplitude ([1]; LY487379 100 nM): 0.00 | Calcium response amplitude ([1]; LY487379 3 uM): 0.21 and 0.14 | Calcium response amplitude ([1]; LY487379 10 uM): 0.34 and 0.27 | Calcium response amplitude ([1]; LY487379 100 uM): 0.49 and 0.44 | shift of LY48 EC50 compared to mGluR2 ([1]; calcium imaging, rightward): 12 fold | EC50 ([1]; read-out: LY48 EC50, calcium imaging): 5460 ± 10 nM | EC50 [2]: 450 ± 100 nM | Calcium response amplitude ([2]; LY487379 1 nM, mGluR2): 0.00 | Calcium response amplitude ([2]; LY487379 1 nM, normalized to 1 mM glutamate, replicates): 0.00 | Calcium response amplitude ([2]; LY487379 10 nM, mGluR2): 0.00 | Calcium response amplitude ([2]; LY487379 10 nM, normalized to 1 mM glutamate, replicates): 0.00 | Calcium response amplitude ([2]; LY487379 100 nM, normalized to 1 mM glutamate, replicates): 0.09 and 0.00 and 0.07 and 0.33 | Calcium response amplitude ([2]; LY487379 1 uM, mGluR2): 0.53 and 0.49 and 0.68 and 0.50 and 0.51 and 0.46 | Calcium response amplitude ([2]; LY487379 1 uM, normalized to 1 mM glutamate, replicates): 0.53 and 0.49 and 0.68 and 0.50 and 0.51 and 0.46 | Calcium response amplitude ([2]; LY487379 3 uM, mGluR2): 0.70 and 0.58 and 0.72 | Calcium response amplitude ([2]; LY487379 3 uM, normalized to 1 mM glutamate, replicates): 0.70 and 0.58 and 0.72 | Calcium response amplitude ([2]; LY487379 10 uM, mGluR2): 0.61 and 0.56 and 0.77 and 0.92 and 0.74 and 0.69 | Calcium response amplitude ([2]; LY487379 10 uM, normalized to 1 mM glutamate, replicates): 0.61 and 0.56 and 0.77 and 0.92 and 0.74 and 0.69 | Calcium response amplitude ([2]; LY487379 100 uM, mGluR2): 0.76 and 0.82 and 0.73 and 0.74 | Calcium response amplitude ([2]; LY487379 100 uM, normalized to 1 mM glutamate, replicates): 0.76 and 0.82 and 0.73 and 0.74 | EC50 [3]: 270 ± 60 nM | Calcium response amplitude ([3]; LY487379 1 nM): 0.00 | Calcium response amplitude ([3]; LY487379 10 nM): 0.14 and 0.16 and 0.09 and 0.00 | Calcium response amplitude ([3]; LY487379 100 nM): 0.27 and 0.19 and 0.25 | Calcium response amplitude ([3]; LY487379 1 uM): 0.80 and 0.82 (2×) and 0.66 | Calcium response amplitude ([3]; LY487379 3 uM): 0.86 and 0.89 | Calcium response amplitude ([3]; LY487379 10 uM): 0.94 and 0.93 and 0.86 | Calcium response amplitude ([3]; LY487379 100 uM): 0.97 and 0.91 and 0.99

Cc1c(C(N)=O)nc2n1C[C@@H](COc1ccc(C(C)(C)C)cc1)O2 [TASP]
% Dimerization [4]: 70.24% and 67.71% and 72.49% and 72.50% and 70.98% and 74.03% | effect of ligand on dimerization (SiMPull) [4]: no sensitivity | % Dimerization [5]: 69.61% and 70.23% and 79.80% and 76.57% and 71.76% and 76.09% | effect of ligand on dimerization (SiMPull) ([5]; saturating concentration): clear increase in dimerization | % Dimerization [6]: 52.39% and 61.74% and 61.54% and 62.46% and 33.04% and 41.52% | % Dimerization [7]: 47.45% and 39.66% and 50.29% and 36.75% and 47.53% and 38.72% | effect of ligand on dimerization (SiMPull) [7]: prevented any PAM- or NAM-induced dimerization shifts | % Dimerization [8]: 76.12% and 87.00% and 99.52% and 87.93% and 80.12% and 79.00% | % Dimerization [9]: 78.37% and 85.60% and 87.01% and 85.50% and 86.03% and 88.59% | effect of ligand on dimerization (SiMPull) ([9]; saturating concentration): significantly increases dimerization | % Dimerization [10]: 59.23% and 63.47% and 55.82% and 58.53% and 66.92% and 63.85% | % Dimerization [11]: 50.00% and 40.35% and 44.84% and 41.46% and 44.90% and 44.88%

MNI 137
% Dimerization [4]: 80.57% and 69.39% and 68.4% and 70.29% and 73.87% and 66.8% and 70.292% and 73.871% and 80.566% and 69.3893% | effect of ligand on dimerization (SiMPull) [4]: no sensitivity | % Dimerization [5]: 39.03% and 46.76% and 55.63% and 64.38% and 47.94% and 59.01% | % Dimerization [6]: 60.52% and 74.21% and 73.33% and 77.72% and 88.90% and 81.43% | effect of ligand on dimerization (SiMPull) ([6]; saturating concentration): clear increase | % Dimerization [7]: 46.88% and 52.99% and 50.80% and 55.60% and 41.02% and 44.69% | effect of ligand on dimerization (SiMPull) [7]: prevented any PAM- or NAM-induced dimerization shifts | % Dimerization [8]: 71.52% and 91.33% and 86.77% and 100.30% and 93.63% and 83.88% | % Dimerization [9]: 70.00% and 81.03% and 62.91% and 67.92% and 62.85% and 68.46% | % Dimerization [10]: 83.51% and 83.55% and 76.24% and 73.81% and 83.57% and 74.66% | effect of ligand on dimerization (SiMPull) ([10]; saturating concentration): significantly increases dimerization | % Dimerization [11]: 49.83% and 50.71% and 40.36% and 45.67% and 37.52% and 54.71% | IC50 [12]: ~10 nM | block of glutamate-induced FRET responses ([13]; MNI 137 10 μM): 32.0 ± 4.5% | Maximum % Inhibition ([13]; mGluR2, Experiment: FRET): 29.8% and 42.4% and 23.8% | block of glutamate-induced FRET responses ([14]; MNI 137 10 μM): 42.9 ± 7.4% | block of glutamate-induced FRET responses ([14]; MNI 137 50 μM, n = 3): 44.9 ± 8.3% | Basal FRET Response (%) ([14]; mGluR3-Halo-ICL2, absence of glutamate, individual measurements): 13.3% and 15.2% and 5% and 5.6% and 0% and 19.5% and 7.8% and 52% | block of functional (calcium) glutamate response ([2]; MNI 137 10 μM): full block of functional responses | Maximum % Inhibition ([2]; mGluR2, Experiment: Function): 100% | block of functional (calcium) glutamate response ([15]; MNI 137 10 μM): full block of functional responses | Maximum % Inhibition ([15]; mGluR3, Experiment: Function): 100%

SNAP-mGluR2-P778A
Surface Expression [16]: 0.58 and 0.76 and 0.68 and 0.87 and 0.59 and 1.10 and 0.91
